Patent US20240246940A1, “HETEROARYL DERIVATIVE COMPOUND AND USE THEREOF” (VORONOI INC., priority 2021, published 2024)
Like-named read-outs stand apart in the source and are kept apart here.

What was measured:
Type in all cases: cell-based
[1] = system: HaCaT cells (EGFR expressing cell line); test: HaCaT cell proliferation inhibitory activity (CellTiter-Glo, 72 hours)
Procedure, shortened: (§1)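 GI50 derived from % growth versus control from CellTiter-Glo luminescence, each test run three times. SK-BR-3 and BT-474 are seeded 48 h ahead at 5000/well and dosed at 0.2 nM–10 μM. N-87 (5000/well) gets […]–5 μM and HaCaT (3000/well) gets 0.8 nM–45 μM, both seeded 24 h ahead.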

[2] = system: BT-474 cells (HER2 overexpressing cell line); test: BT-474 cell proliferation inhibitory activity (CellTiter-Glo, 120 hours)
Procedure: To evaluate the cell proliferation inhibitory activity of the compound according to the present invention on HER2 and EGFR kinases, the following method was performed using HER2 overexpressing cell lines (SK-BR-3, BT-474, and N-87) and EGFR expressing cell line (HaCaT).
McCOY'S 5A supplemented with 10% FBS was used for SK-BR-3 cells, RPMI-1640 medium supplemented with 20% FBS was used for BT-474 cancer cells, and RPMI-1640 medium supplemented with 10% FBS was used for N-87 cancer cells. DMEM supplemented with 10% FBS was used for HaCaT cells.
For SK-BR-3 cells, 5000 cells were aliquoted into each well of a white clear bottom 96 well plate (Corning) 48 hours before treatment with the compounds of Examples. For BT-474 cells, 5000 cells were aliquoted into each well of a white clear bottom 96 well plate (Corning) 48 hours before treatment with the compounds of Examples. For N-87 cells, 5000 cells were aliquoted into each well of a white clear bottom 96 well plate (Corning) 24 hours before treatment with the compounds of Examples. For HaCaT cells, 3000 cells were aliquoted into each well of a white clear bottom 96 well plate (Corning) 24 hours before treatment with the compounds of Examples. For SK-BR-3 cells and BT-474 cells, the compounds of Examples were diluted in dimethyl sulfoxide (three-fold dilution, a total of 11 concentrations) and injected each in an amount of 1 μl to a final concentration of 0.2 nM to 10 μM. For N-87 cells, the compounds of Examples were diluted in dimethyl sulfoxide (five-fold dilution, a total of 11 concentrations) and injected each in an amount of 0.5 μl to a final concentration of […] to 5 μM. For HaCaT cells, the compounds of Examples were diluted in dimethyl sulfoxide (three-fold dilution, a total of 11 concentrations) and injected each in an amount of 0.5 μl to a final concentration of 0.8 nM to 45 μM. For the measurement of living cells, the cells were stored at room temperature for 10 minutes using CellTiter-Glo cell viability reagent (Promega) after a certain period of time (SK-BR-3: 120 hours, BT-474: 120 hours, N-87: 72 hours, and HaCaT: 72 hours) post treatment with the compounds of Examples, and the luminescence intensity thereof was measured using a reader (SynergyNeo, Biotek). Each test was repeated three times.
The result values were calculated as a cell growth rate (%) compared to those of the control group. A graph was created using the GraphPad Prism version 5.0 program, and GI50 values were calculated.

[3] = system: SK-BR-3 cells (HER2 overexpressing cell line); test: SK-BR-3 cell proliferation inhibitory activity (CellTiter-Glo, 120 hours); conditions: Homo sapiens
Procedure, shortened: as §1

SMILES	GI50 ([2]; Homo sapiens)	GI50 [2]	GI50 [3]	GI50 ([1]; Homo sapiens)	GI50 [1]
C=CC(=O)N1CCC(F)(F)C(Oc2cc(OC)cc3ncnc(Nc4cc(-c5ccco5)ccc4OC)c23)C1 (stereo not shown) [Example 53, 1-(4,4-difluoro-3-((4-((5-(furan-2-yl)-2-methoxyphenyl)amino)-7-methoxy-quinazolin-5-yl)oxy)piperidin-1-yl)prop-2-en-1-one]	≤ 150 nM	–	–	≤ 150 nM	–
C=CC(=O)N1CCC(Oc2cc(OC)cc3ncnc(Nc4cc(-c5ccco5)ccc4OC)c23)C(F)(F)C1 (stereo not shown) [Example 99, 1-(3,3-difluoro-4-((4-((5-(furan-2-yl)-2-methoxyphenyl)amino)-7-methoxy-quinazolin-5-yl)oxy)piperidin-1-yl)prop-2-en-1-one]	–	≤ 150 nM	–	–	≤ 150 nM
C=CC(=O)N1CCC(F)(F)C(Oc2cc(OC)cc3ncnc(Nc4cc(-c5ccc(F)cc5F)ccc4OC)c23)C1 (stereo not shown) [Example 100, 1-(3-((4-((2′,4′-difluoro-4-methoxy-[1,1′-biphenyl]-3-yl)amino)-7-methoxy-quinazolin-5-yl)oxy)-4,4-difluoro-piperidin-1-yl)prop-2-en-1-one]	–	≤ 150 nM	–	–	≤ 150 nM
C=CC(=O)N1CCC(Oc2cc3c(Nc4cc(-c5ccc6c(c5)OCO6)ccc4OC)ncnc3cc2OC)CC1 [Example 153, 1-(4-((4-((5-(benzo[d][1,3]dioxol-5-yl)-2-methoxyphenyl)amino)-7-methoxy-quinazolin-6-yl)oxy)piperidin-1-yl)prop-2-en-1-one]	150 to 1000 nM	–	–	> 1000 nM	–
C=CC(=O)N1[C@@H]2CC[C@H]1C[C@@H](Oc1cc3c(Nc4cc(-c5ccco5)ccc4OC)ncnc3cc1OC)C2 [Example 167, 1-((1R,3r,5S)-3-((4-((5-(furan-2-yl)-2-methoxyphenyl)amino)-7-methoxy-quinazolin-6-yl)oxy)-8-azabicyclo [3.2.1]octan-8-yl)prop-2-en-1-one]	≤ 150 nM	–	–	≤ 150 nM	–
C=CC(=O)N1[C@@H]2CC[C@H]1C[C@H](Oc1cc3c(Nc4cc(-c5ccco5)ccc4OC)ncnc3cc1OC)C2 [Example 172, 1-((1R,3s,5S)-3-((4-((5-(furan-2-yl)-2-methoxyphenyl)amino)-7-methoxy-quinazolin-6-yl)oxy)-8-azabicyclo [3.2.1]octan-8-yl)prop-2-en-1-one]	≤ 150 nM	–	–	≤ 150 nM	–
C=CC(=O)N1CC[C@H](Oc2cc3c(Nc4cc(-c5ccco5)ccc4OC)ncnc3cc2OC)[C@@H](F)C1 [Example 174, 1-((3S,4S)-3-fluoro-4-((4-((5-(furan-2-yl)-2-methoxyphenyl)amino)-7-methoxy-quinazolin-6-yl)oxy)piperidin-1-yl)prop-2-en-1-one]	≤ 150 nM	–	–	≤ 150 nM	–
C=C(F)C(=O)N1CCC(Oc2cc3c(Nc4cc(-c5ccco5)ccc4OC)ncnc3cc2OC)CC1 [Example 184, 2-fluoro-1-(4-((4-((5-(furan-2-yl)-2-methoxyphenyl)amino)-7-methoxy-quinazolin-6-yl)oxy)piperidin-1-yl)prop-2-en-1-one]	> 1000 nM	–	–	150 to 1000 nM	–
C=CC(=O)N1CCC(Oc2cc3c(Nc4c(OC)ccc(-c5ccco5)c4F)ncnc3cc2OC)CC1 [Example 185, 1-(4-((4-((2-fluoro-3-(furan-2-yl)-6-methoxyphenyl)amino)-7-methoxy-quinazolin-6-yl)oxy)piperidin-1-yl)prop-2-en-1-one]	≤ 150 nM	–	–	≤ 150 nM	–
COc1ccc(-c2ccc(F)cc2F)cc1Nc1ncnc2cc(OC)c(OC3CCN(C(=O)C(F)Cl)CC3)cc12 (stereo not shown) [Example 187, 2-chloro-1-(4-((4-((2′,4′-difluoro-4-methoxy-[1,1′-biphenyl]-3-yl)amino)-7-methoxy-quinazolin-6-yl)oxy)piperidin-1-yl)-2-fluoroethan-1-one]	150 to 1000 nM	–	–	≤ 150 nM	–
COc1ccc(-c2ccco2)cc1Nc1ncnc2cc(OC)c(OC3CCN(C(=O)C(F)Cl)CC3)cc12 (stereo not shown) [Example 188, 2-chloro-2-fluoro-1-(4-((4-((5-(furan-2-yl)-2-methoxyphenyl)amino)-7-methoxy-quinazolin-6-yl)oxy)piperidin-1-yl)ethan-1-one]	150 to 1000 nM	–	–	≤ 150 nM	–
C=CC(=O)N1CCC(Oc2cc3c(Nc4cc(-c5ccc6ccsc6c5)ccc4OC)ncnc3cc2OC)CC1 [Example 193, 1-(4-((4-((5-(benzo[b]thiophen-6-yl)-2-methoxyphenyl)amino)-7-methoxy-quinazolin-6-yl)oxy)piperidin-1-yl)prop-2-en-1-one]	150 to 1000 nM	–	–	≤ 150 nM	–
C=CC(=O)N1CCC(Oc2cc3c(Nc4cc(-c5cccc([N+](=O)[O-])c5)ccc4OC)ncnc3cc2OC)CC1 [Example 197, 1-(4-((7-methoxy-4-((4-methoxy-3′-nitro-[1,1′-biphenyl]-3-yl)amino)quinazolin-6-yl)oxy)piperidin-1-yl)prop-2-en-1-one]	150 to 1000 nM	–	–	> 1000 nM	–

More lines, main results first:

GI50 ([2]; Homo sapiens)	GI50 [2]	GI50 [3]	SMILES	GI50 ([1]; Homo sapiens)	GI50 [1]
≤ 150 nM	–	–	C=CC(=O)N1CCC(Oc2cc3c(Nc4cc(-c5ccc(F)o5)ccc4OC)ncnc3cc2OC)CC1 [Example 88, 1-(4-((4-((5-(5-fluorofuran-2-yl)-2-methoxyphenyl)amino)-7-methoxy-quinazolin-6-yl)oxy)piperidin-1-yl)prop-2-en-1-one]	≤ 150 nM	–
150 to 1000 nM	–	–	C=CC(=O)N1CC[C@H](Oc2cc3c(Nc4cc(-c5ccc(F)cc5F)ccc4OC)ncnc3cc2OC)[C@@H](F)C1 [Example 152, 1-((3S,4S)-4-((4-((2′,4′-difluoro-4-methoxy-[1,1′-biphenyl]-3-yl)amino)-7-methoxy-quinazolin-6-yl)oxy)3-fluoropiperidin-1-yl)prop-2-en-1-one]	150 to 1000 nM	–
≤ 150 nM	–	–	C=CC(=O)N1CC[C@@H](Oc2cc3c(Nc4cc(-c5ccco5)ccc4OC)ncnc3cc2OC)[C@@H](F)C1 [Example 178, 1-((3S,4R)-3-fluoro-4-((4-((5-(furan-2-yl)-2-methoxyphenyl)amino)-7-methoxy-quinazolin-6-yl)oxy)piperidin-1-yl)prop-2-en-1-one]	≤ 150 nM	–
150 to 1000 nM	–	–	C=CC(=O)N1CCC(Oc2cc3c(Nc4cc(-c5ccc(C#N)o5)ccc4OC)ncnc3cc2OC)CC1 [Example 183, 5-(3-((6-((1-acryloyl-piperidin-4-yl)oxy)-7-methoxy-quinazolin-4-yl)amino)-4-methoxyphenyl) furan-2-carbonitrile]	150 to 1000 nM	–
≤ 150 nM	–	–	C=CC(=O)N1CCC(Oc2cc(OC)cc3ncnc(Nc4cc(-c5ccco5)ccc4OC)c23)C(F)(F)C1 (stereo not shown) [Example 195, 1-(3,3-difluoro-4-((4-((5-(furan-2-yl)-2-methoxyphenyl)amino)-7-methoxy-quinazolin-5-yl)oxy)piperidin-1-yl)prop-2-en-1-one]	≤ 150 nM	–
≤ 150 nM	–	–	C=CC(=O)N1CCC(Oc2cc3c(Nc4cc(-c5ccc(F)c(C(F)F)c5)ccc4OC)ncnc3cc2OC)CC1 [Example 196, 1-(4-((4-((3′-(difluoromethyl)-4′-fluoro-4-methoxy-[1,1′-biphenyl]-3-yl)amino)-7-methoxy-quinazolin-6-yl)oxy)piperidin-1-yl)prop-2-en-1-one]	150 to 1000 nM	–
–	–	≤ 150 nM	C=CC(=O)Nc1cc2c(Nc3cc(-c4ccco4)ccc3OC)ncnc2cc1OC [Example 289, N-(4-((5-(furan-2-yl)-2-methoxyphenyl)amino)-7-methoxyquinazolin-6-yl)acrylamide]	≤ 150 nM	–
–	–	150 to 1000 nM	C=CC(=O)Nc1cc2c(Nc3cc(-c4ccoc4C)ccc3OC)ncnc2cc1OC [Example 290, N-(7-methoxy-4-((2-methoxy-5-(2-methylfuran-3-yl)phenyl)amino)quinazolin-6-yl)acrylamide]	≤ 150 nM	–
–	–	> 1000 nM	C=CC(=O)Nc1cc2c(Nc3cc(-c4ccco4)ccc3OC)c(C#N)cnc2cc1OCC [Example 291, N-(3-cyano-7-ethoxy-4-((5-(furan-2-yl)-2-methoxyphenyl)amino)quinolin-6-yl)acrylamide]	≤ 150 nM	–
–	–	150 to 1000 nM	C=CC(=O)N1CC2(C1)CN(c1cc3c(Nc4cc(-c5ccco5)ccc4OC)ncnc3cc1OC)C(=O)O2 [Example 330, 2-acryloyl-7-(4-((5-(furan-2-yl)-2-methoxyphenyl)amino)-7-methoxyquinazolin-6-yl)-5-oxa-2,7-diazaspiro[3.4]octan-6-one]	150 to 1000 nM	–
